Results: ChEMBL document CHEMBL1201862, “PubChem BioAssay data set” (2004)
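Test compounds were applied to cells in 96-well plates for 48 hours at 5 doses. At the GI50, growth is halved.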 Calls of active or inactive are those of the source. Cut-off read from the data, not from the text of the source: active = GI50 up to about 1.1 µM and inactive = higher.

Assays:
Test in all cases: NCI-60 cell line screen, 48 h
A549 = system: A549
EKVX = system: EKVX
HCT-15 = system: HCT-15
KM12 = system: KM12
LOX IMVI = system: LOX IMVI
NCI-H226 = system: NCI-H226
NCI-H460 = system: NCI-H460
NCI-H522 = system: NCI-H522
RPMI-8226 = system: RPMI-8226
SK-MEL-5 = system: SK-MEL-5
SNB-75 = system: SNB-75
UO-31 = system: UO-31
HOP-92 = system: HOP-92
RXF 393 = system: RXF 393

Row | Structure (SMILES) | GI50 (A549) | GI50 (EKVX) | GI50 (HCT-15) | GI50 (KM12) | GI50 (LOX IMVI) | GI50 (NCI-H226) | GI50 (NCI-H460) | GI50 (NCI-H522) | GI50 (RPMI-8226) | GI50 (SK-MEL-5) | GI50 (SNB-75) | GI50 (UO-31) | GI50 (HOP-92) | GI50 (RXF 393)
1 | COC(=O)c1ccc(OCc2ccc3nc(OC)c(OC)nc3c2)cc1 | > 100 µM (inactive) | > 100 µM (inactive) | > 100 µM | > 100 µM (inactive) | > 100 µM (inactive) | > 100 µM (inactive) | > 100 µM (inactive) | 34 µM (inactive) | > 100 µM (inactive) | > 100 µM (inactive) | > 100 µM (inactive) | > 100 µM (inactive) |  | 
2 | CCN(c1ccc(Br)cc1)c1c(Br)c(=O)nc2ccccn12 | > 100 µM (inactive) | 73.3 µM (inactive) | 99.1 µM | > 100 µM (inactive) |  | > 100 µM (inactive) | > 100 µM (inactive) | 62.2 µM (inactive) | 74.5 µM (inactive) | 59.8 µM (inactive) | > 100 µM (inactive) | 35.7 µM (inactive) | 57.3 µM (inactive) | 
3 | CC(=O)OCCOCNC(=S)N/N=C/c1ccc([N+](=O)[O-])o1 | 63.5 µM (inactive) | > 100 µM (inactive) | 52.6 µM | 57 µM (inactive) | 31.6 µM (inactive) | 98.4 µM (inactive) | 28.7 µM (inactive) | 64.4 µM (inactive) |  | 28.7 µM (inactive) | > 100 µM (inactive) | > 100 µM (inactive) |  | > 100 µM (inactive)
4 | c1cc(-c2cn3c(n2)SCC3)ccn1 | > 100 µM (inactive) | > 68.9 µM (inactive) | > 43.2 µM | > 100 µM (inactive) | > 59.2 µM (inactive) | > 100 µM (inactive) | > 55.3 µM (inactive) | > 100 µM (inactive) | > 65.5 µM (inactive) | > 100 µM (inactive) | > 100 µM (inactive) | > 100 µM (inactive) | > 100 µM (inactive) | 
5 | COc1ccccc1NC(=O)C1=C(C)NC(C)=C(C(=O)Nc2ccccc2OC)C1c1ccc(C(C)C)cc1 | 40.1 µM (inactive) | 33 µM (inactive) | > 100 µM | 55.6 µM (inactive) | > 100 µM (inactive) | > 100 µM (inactive) | 61.1 µM (inactive) |  | 7.38 µM (inactive) | 38.9 µM (inactive) | 27 µM (inactive) | 29 µM (inactive) | 82.4 µM (inactive) | 
6 | COc1ccc(/C=N/NS(=O)(=O)c2ccccc2)cc1 | > 100 µM (inactive) | > 100 µM (inactive) | > 100 µM | > 100 µM (inactive) | > 100 µM (inactive) | > 100 µM (inactive) | > 100 µM (inactive) |  | > 100 µM (inactive) | > 100 µM (inactive) | > 100 µM (inactive) | > 100 µM (inactive) | > 100 µM (inactive) | > 100 µM (inactive)
7 | Cc1nc(-n2nc(-c3ccccc3)cc2-c2ccccc2)sc1C(=O)CC(=O)C(=O)Nc1ccc(Cl)c(Cl)c1 | > 100 µM (inactive) | 15.1 µM (inactive) | 56.1 µM | 35.9 µM (inactive) | 71 µM (inactive) | > 100 µM (inactive) | 71.4 µM (inactive) | 32.6 µM (inactive) | 41.8 µM (inactive) |  | 55 µM (inactive) | 77.1 µM (inactive) |  | > 100 µM (inactive)
8 | CC[C@@H]1NC(C(=O)OC)Cc2c1[nH]c1ccccc21 (some centres undefined) | > 100 µM (inactive) | > 100 µM (inactive) | > 100 µM | > 100 µM (inactive) | > 100 µM (inactive) | > 100 µM (inactive) | 27.9 µM (inactive) |  |  | > 100 µM (inactive) | > 100 µM (inactive) | > 100 µM (inactive) | > 100 µM (inactive) | 
9 | CN1C(=O)C2C(C1=O)C1(O)c3ccccc3C2(N)c2ccccc21 (centres undefined) | > 100 µM (inactive) | > 100 µM (inactive) | > 100 µM | > 100 µM (inactive) | > 100 µM (inactive) | > 100 µM (inactive) | > 100 µM (inactive) |  |  | > 100 µM (inactive) | > 100 µM (inactive) | > 100 µM (inactive) | > 100 µM (inactive) | > 100 µM (inactive)
